{
  "source": "patent US20230312587A1",
  "about": "“PTERIDINONE COMPOUNDS AND USES THEREOF” (Vertex Pharmaceutical Incorporated, priority 2018, published 2023)",
  "data": [
    {"system": "β-catenin-TCF-mediated reporter transcription activity in Colo 205 cells", "experiment": "Colo 205 reporter assay (TCF/LEF luciferase)", "assay_type": "cell-based", "settings": "Colo 205 TCF/LEF luciferase reporter, five hours after addition of compound; read-out: TCF reporter Colo205 IC50", "source_text": "(§1) The compounds of the invention described herein were screened using the assay procedure for β-catenin-TCF-mediated reporter transcription activity described below.\n(§2) Reporter cell lines were generated by stably transfecting cells of cancer cell lines (e.g., colon cancer) with a plasmid reporter construct (From SABiosciences, a QIAGEN company) that includes TCF/LEF promoter driving expression of the firefly luciferase gene. TCF/LEF reporter constructs were made in which TCF/LEF promoter, a promoter with optimal number of TCF/LEF binding sites designed by SABiosceinces, was linked upstream of the firefly luciferase gene. This construct could also include a puromycin resistance gene as a selectable marker. This construct could also be used to stably transfect Colo 205 cells, a colon cancer cell line having a mutated APC gene that causes a constitutively active β-catenin. A control cell line was generated using another plasmid construct containing the luciferase gene under the control of a CMV basal promoter which is not activated by p-catenin.\n(§3) Colo 205 Cultured cells with a stably transfected reporter construct were plated at approximately 10,000 cells per well into 384 well multi-well plates for twenty four hours. The testing compounds were then added to the wells in 2-fold serial dilutions using a twenty micromolar top concentration. A series of control wells for each cell type received only compound solvent. Five hours after the addition of compound, reporter activity for luciferase was assayed, by addition of the SteadyGlo luminescence reagent (Promega). The reporter luminescence activity was measured using Pherastar plate reader (BMG Labtech). Readings were normalized to DMSO only treated cells, and normalized activities were then used in the IC50 calculations. The Colo 205 reporter assay data are summarized in Table 45: A<0.3 μM; 0.3 μM≤B<1.0 μM; 1.0 μM≤C<5.0 μM; D≥5.0 μM\n(§4) Colo 205 reporter assay data has also been obtained for certain R-isomers of Formula (I) wherein R^4 is —H or -D, and wherein the carbon to which R^3 and R^4 are attached (C2 carbon of Formula (X)) has R stereochemistry; such epimeric compounds are represented using the suffix “B” attached to the Compound described herein having the S stereochemistry at the carbon to which R^3 and R^4 are attached: […]", "units": {"IC50": "nM"}, "values": [
      {"smiles": "Cc1nc(N[C@H]2CO[C@H](COc3cc(F)c(F)c(F)c3)C2)nc2c1NC(=O)[C@H](C)N2C", "note": "[Compound 302, (7S)-4,7,8-trimethyl-2-(((3R,5S)-5-((3,4,5-trifluorophenoxy)methyl)tetrahydrofuran-3-yl)amino)-7,8-dihydropteridin-6(5H)-one]", "IC50": "1000 to 5000"}
    ]},
    {"system": "β-catenin-TCF-mediated reporter transcription activity in Colo 205 cells", "experiment": "Colo 205 reporter assay (TCF/LEF luciferase)", "assay_type": "cell-based", "settings": "Colo 205 cells with stably transfected TCF/LEF luciferase reporter; five hours after addition of compound; read-out: TCF reporter Colo205", "source_text": "as §1, §2, §3, §4", "units": {"IC50": "nM"}, "values": [
      {"smiles": "CC(=O)NCCCC[C@H](N)C(=O)N(Cc1cnn(Cc2ccc(C(F)(F)F)nc2)c1)c1nc(C)c2c(n1)N(C)[C@@H](C)C(=O)N2", "note": "[Compound 404, (7S)-6-acetamido-2-amino-N-((1-((6-(trifluoromethyl)pyridin-3-yl)methyl)-1H-pyrazol-4-yl)methyl)-N-((S)-4,7,8-trimethyl-6-oxo-5,6,7,8-tetrahydropteridin-2-yl)hexanamide]", "IC50": "≥ 5000"}
    ]},
    {"system": "β-catenin-TCF-mediated reporter transcription activity in Colo 205 cells", "experiment": "Colo 205 reporter assay (TCF/LEF luciferase)", "assay_type": "cell-based", "settings": "Homo sapiens, COLO 205, 5 h, Colo 205 TCF/LEF luciferase reporter, five hours after addition of compound; read-out: TCF reporter Colo205 IC50", "source_text": "as §1, §2, §3, §4", "units": {"IC50": "nM"}, "values": [
      {"smiles": "COC1(C2C(=O)Nc3c(C)nc(N[C@H]4C[C@H](Oc5cnc(C(F)(F)F)nc5)C4)nc3N2C)CCC1", "note": "(relative stereo) [Compound 718, 7-(1-methoxycyclobutyl)-4,8-dimethyl-2-((trans-3-((2-(trifluoromethyl)pyrimidin-5-yl)oxy)cyclobutyl)amino)-7,8-dihydropteridin-6(5H)-one]", "IC50": "< 300"},
      {"smiles": "Cc1nc(N[C@H]2C[C@@H](Sc3ccc(C(F)(F)F)cc3)C2)nc2c1N(C)C(=O)[C@H](C)N2C", "note": "[Compound 322, (7S)-4,5,7,8-tetramethyl-2-((cis-3-((4-(trifluoromethyl)phenyl)thio)cyclobutyl)amino)-7,8-dihydropteridin-6(5H)-one]", "IC50": "300 to 1000"},
      {"smiles": "COc1c(F)cc(Cn2cc(CNc3nc(C)c4c(n3)N(C)[C@@H](C(C)C)C(=O)N4)nn2)cc1F", "note": "[Compound 451, (S)-2-(((1-(3,5-difluoro-4-methoxybenzyl)-1H-1,2,3-triazol-4-yl)methyl)amino)-7-isopropyl-4,8-dimethyl-7,8-dihydropteridin-6(5H)-one]", "IC50": "< 300"},
      {"smiles": "Cc1nc(N[C@H]2CCc3nn(Cc4ccc(C(F)(F)F)nc4)cc32)nc2c1NC(=O)[C@H](C(C)C)N2C", "note": "[Compound 521, (S)-7-isopropyl-4,8-dimethyl-2-(((S)-2-((6-(trifluoromethyl)pyridin-3-yl)methyl)-2,4,5,6-tetrahydrocyclopenta[c]pyrazol-4-yl)amino)-7,8-dihydropteridin-6(5H)-one]", "IC50": "1000 to 5000"},
      {"smiles": "Cc1nc(N[C@H]2C[C@H](Oc3ccc(F)c(F)c3)C2)nc2c1NC(=O)[C@H](C)N2C", "note": "[Compound 248, (7S)-2-((trans 3-(3,4-difluorophenoxy)cyclobutyl)amino)-4,7,8-trimethyl-7,8-dihydropteridin-6(5H)-one]", "IC50": "< 300"},
      {"smiles": "COC1(C2C(=O)Nc3c(C)nc(N[C@H]4C[C@@H](Nc5cnc(C(F)(F)F)cn5)C4)nc3N2C)CCC1", "note": "(relative stereo) [Compound 672, 7-(1-methoxycyclobutyl)-4,8-dimethyl-2-((cis-3-((5-(trifluoromethyl)pyrazin-2-yl)amino)cyclobutyl)amino)-7,8-dihydropteridin-6(5H)-one]", "IC50": "< 300"},
      {"smiles": "Cc1nc(NC2CN(C(=O)[C@H]3CCCO3)C2)nc2c1NC(=O)[C@H](C(C)C)N2C", "note": "[Compound 636, (S)-7-isopropyl-4,8-dimethyl-2-((1-((R)-tetrahydrofuran-2-carbonyl)azetidin-3-yl)amino)-7,8-dihydropteridin-6(5H)-one]", "IC50": "≥ 5000"},
      {"smiles": "CC[C@@]1(C)C(=O)N(C)c2cnc(NCc3cnn(Cc4ccc(F)cc4)c3)nc2N1C", "note": "[Compound I-226]", "IC50": "< 300"},
      {"smiles": "Cc1nc(NCc2cnn(Cc3cc(F)c(F)c(F)c3)c2)nc2c1NC(=O)[C@H](C1CC1)N2C", "note": "[Compound 456, (S)-7-cyclopropyl-4,8-dimethyl-2-(((1-(3,4,5-trifluorobenzyl)-1H-pyrazol-4-yl)methyl)amino)-7,8-dihydropteridin-6(5H)-one]", "IC50": "< 300"},
      {"smiles": "COc1cc(Cn2cc(CNc3nc(C)c4c(n3)N(C)[C@@H](C)C(=O)N4)cn2)ccn1", "note": "[Compound 203, (7S)-2-(((1-((2-methoxypyridin-4-yl)methyl)-1H-pyrazol-4-yl)methyl)amino)-4,7,8-trimethyl-7,8-dihydropteridin-6(5H)-one]", "IC50": "< 300"},
      {"smiles": "Cc1nc(N[C@H]2C[C@H](Sc3ccc(C(F)(F)F)cc3)C2)nc2c1NC(=O)[C@H](C)N2C", "note": "[Compound 317, (7S)-4,7,8-trimethyl-2-((trans-3-((4-(trifluoromethyl)phenyl)thio)-cyclobutyl)amino)-7,8-dihydropteridin-6(5H)-one]", "IC50": "300 to 1000"},
      {"smiles": "Cc1nc(NCc2cnn(Cc3ccc(C#N)nc3)c2)nc2c1NC(=O)[C@H](C)N2C", "note": "[Compound 176, (7S)-5-((4-(((4,7,8-trimethyl-6-oxo-5,6,7,8-tetrahydropteridin-2-yl)amino)methyl)-1H-pyrazol-1-yl)methyl)picolinonitrile]", "IC50": "300 to 1000"},
      {"smiles": "C[C@H]1C(=O)Nc2cnc(NCc3cnn(Cc4ccc(C(F)(F)F)cc4)c3)nc2N1C", "note": "[Compound 147, (7S)-7,8-dimethyl-2-(((1-(4-(trifluoromethyl)benzyl)-1H-pyrazol-4-yl)methyl)amino)-7,8-dihydropteridin-6(5H)-one]", "IC50": "< 300"},
      {"smiles": "Cc1nc(N[C@H]2C[C@@H](NC(=O)Cc3cc(F)c(F)c(F)c3)C2)nc2c1NC(=O)[C@H](C(C)C)N2C", "note": "[Compound 514, N-(cis-3-(((S)-7-isopropyl-4,8-dimethyl-6-oxo-5,6,7,8-tetrahydropteridin-2-yl)amino)cyclobutyl)-2-(3,4,5-trifluorophenyl)acetamide]", "IC50": "< 300"},
      {"smiles": "C=C(C)c1ccc(Cn2cc(CNc3nc(C)c4c(n3)N(C)[C@@H](C(C)C)C(=O)N4)cn2)cn1", "note": "[Compound 480, (S)-7-isopropyl-4,8-dimethyl-2-(((1-((6-(prop-1-en-2-yl)pyridin-3-yl)methyl)-1H-pyrazol-4-yl)methyl)amino)-7,8-dihydropteridin-6(5H)-one]", "IC50": "< 300"},
      {"smiles": "Cc1nc(NCc2cnn(Cc3ccc(F)cc3O)c2)nc2c1NC(=O)[C@H](C)N2C", "note": "[Compound 87, (7S)-2-(((1-(4-fluoro-2-hydroxybenzyl)-1H-pyrazol-4-yl)methyl)amino)-4,7,8-trimethyl-7,8-dihydropteridin-6(5H)-one]", "IC50": "< 300"},
      {"smiles": "Cc1nc(NCc2ccc(OCc3ccc(F)cc3)nc2)nc2c1NC(=O)[C@H](C)N2C", "note": "[Compound 57, (7S)-2-(((6-((4-fluorobenzyl)oxy)pyridin-3-yl)methyl)amino)-4,7,8-trimethyl-7,8-dihydropteridin-6(5H)-one]", "IC50": "< 300"},
      {"smiles": "Cc1nc(N[C@H]2C[C@H](Oc3ncc(F)cn3)C2)nc2c1N(C)C(=O)[C@H](C)N2C", "note": "[Compound 274, (S)-2-((trans-3-((5-fluoropyrimidin-2-yl)oxy)cyclobutyl)amino)-4,5,7,8-tetramethyl-7,8-dihydropteridin-6(5H)-one]", "IC50": "≥ 5000"},
      {"smiles": "[2H]C([2H])([2H])C([2H])([2H])N1C(=O)[C@H](C)N(C)c2nc(N[C@H]3C[C@H](Oc4cc(F)c(F)c(F)c4)C3)nc(C)c21", "note": "[Compound 328, (7S)-5-(ethyl-d5)-4,7,8-trimethyl-2-((trans-3-(3,4,5-trifluorophenoxy)-cyclobutyl)amino)-7,8-dihydropteridin-6(5H)-one]", "IC50": "< 300"},
      {"smiles": "Cc1nc(N[C@H]2C[C@H](Oc3ccc(F)c(F)c3F)C2)nc2c1NC(=O)[C@H](C)N2C", "note": "[Compound 291, (7S)-4,7,8-trimethyl-2-((trans 3-(2,3,4-trifluorophenoxy)cyclobutyl)amino)-7,8-dihydropteridin-6(5H)-one]", "IC50": "< 300"},
      {"smiles": "Cc1nc(NCc2cnn(Cc3ccc(F)c(F)c3)c2)nc2c1N(C)C(=O)[C@H](C)N2C", "note": "[Compound 28, (7S)-2-(((1-(3,4-difluorobenzyl)-1H-pyrazol-4-yl)methyl)amino)-4,5,7,8-tetramethyl-7,8-dihydropteridin-6(5H)-one]", "IC50": "< 300"},
      {"smiles": "Cc1nc(N[C@H]2C[C@@H](Cn3ccc(C(F)(F)F)n3)C2)nc2c1NC(=O)[C@H](C(C)C)N2C", "note": "[Compound 690, (S)-7-isopropyl-4,8-dimethyl-2-((cis-3-((3-(trifluoromethyl)-1H-pyrazol-1-yl)methyl)cyclobutyl)amino)-7,8-dihydropteridin-6(5H)-one]", "IC50": "< 300"},
      {"smiles": "Cc1nc(N[C@H]2C[C@@H](Nc3cc(C(F)(F)F)ncn3)C2)nc2c1NC(=O)[C@H](C)N2C", "note": "[Compound 552, (S)-4,7,8-trimethyl-2-((cis-3-((6-(trifluoromethyl)pyrimidin-4-yl)amino)cyclobutyl)amino)-7,8-dihydropteridin-6(5H)-one]", "IC50": "≥ 5000"}
    ]},
    {"system": "β-catenin-TCF-mediated reporter transcription activity in Colo 205 cells", "experiment": "Colo 205 reporter assay (TCF/LEF luciferase)", "assay_type": "cell-based", "settings": "Homo sapiens, COLO 205, 5 h, R-isomer at C2 (corresponding to C2 S-isomer); Colo 205 TCF/LEF luciferase reporter, 5 h; read-out: TCF reporter Colo205 IC50", "source_text": "as §1, §2, §3, §4", "units": {"IC50": "nM"}, "values": [
      {"smiles": "Cc1nc(NCc2cnn(Cc3ccc(F)cc3)c2)nc2c1N(C)C(=O)[C@@H](C)N2C", "note": "[Compound I-866]", "IC50": "300 to 1000"},
      {"smiles": "CCN1C(=O)[C@@H](C)N(C(C)C)c2nc(NCc3cnn(Cc4cc(F)c(F)c(F)c4)c3)ncc21", "note": "[Compound I-1463]", "IC50": "< 300"}
    ]}
  ]
}
